For the assay, the target named is Alpha-synuclein (Homo sapiens, UniProt P37840).

By Kd is commonly meant the concentration at which binding is half-saturated.

In turn, `OCCOC(=C\C=C1N(c2ccccc2)c2cc3ccccc3cc2N1c1ccccc1)/C=C/c1n(-c2ccccc2)c2cc3ccccc3cc2[n+]1-c1ccccc1` showed a Kd of 3.8 nM.

Values taken from BindingDB's records for PubMed 36966976 (Csir-Indian Institute of Chemical Technology (CSIR-IICT), 2023).
